In patent publication US4816438A, “Insulin-selective somatostatin analogs” (The Salk Institute for Biological Studies, priority 1987, dated 1989):
Where a SMILES comes first, the peptide text is derived from it. Bridges are numbered along the chain shown (N, C = ends).

Columns and labels:
[1] = tested on: cells of rat pituitary glands; experiment: in vitro radioimmunoassays of growth hormone release from cultured rat pituitary cells, side-by-side with somatostatin-14; format: cell-based; conditions: comparative testing in rat pituitary cell cultures
Protocol: To determine the effectiveness of the peptides to inhibit the release of insulin, in vitro radioimmunoassays are carried out using aSS-28, [Lys^23 ]-aSS-28 and aSS(15-28) in side-by-side comparison with equimolar concentrations of somotostatin-14 having a known effectiveness to inhibit the release of growth hormone induced by the application of isobutyl methyl xanthine to pituitary cells. Cultures are used which include cells of rat pituitary glands removed some four to five days previously in a system that minimizes enzymatic degradation, generally following the procedure set forth in Vale et al., Methods in Enzymology, Hormones and Cyclic Nucleotides (1975) Vol. 37, p. 82. Both cultures of a defined standard medium and cultures which are considered optimal for the secretion of growth hormone, as a result of having additions of either 2% or 10% of serum from a foetal calf, are used for the comparative testing.

[2] = synthetic SS-28; literature report; cited from earlier work

Row | Compound | biological activity / potency relative to aSS-28 [1] | potency when administered in vivo [2]
1 | CC(C)C[C@H](NC(=O)[C@H](CC(N)=O)NC(=O)[C@H](CC(N)=O)NC(=O)[C@@H](NC(=O)[C@H](CO)NC(=O)[C@H](CC(=O)O)NC(=O)[C@@H](NC(=O)[C@@H](N)CO)C(C)C)[C@@H](C)O)C(=O)N1CCC[C@H]1C(=O)N1CCC[C@H]1C(=O)N[C@@H](CCCNC(=N)N)C(=O)N[C@@H](CCC(=O)O)C(=O)N[C@@H](CCCNC(=N)N)C(=O)N[C@@H](CCCCN)C(=O)N[C@@H](C)C(=O)NCC(=O)N[C@H]1CSSC[C@@H](C(=O)O)NC(=O)[C@H](CO)NC(=O)[C@H]([C@@H](C)O)NC(=O)[C@H](Cc2ccccc2)NC(=O)CNC(=O)[C@H](CCCCN)NC(=O)[C@H](Cc2c[nH]c3ccccc23)NC(=O)[C@H](Cc2ccc(O)cc2)NC(=O)[C@H](Cc2ccccc2)NC(=O)[C@H](CC(N)=O)NC(=O)[C@H](CCCCN)NC1=O [[Lys^23]-aSS-28] (H-SVDSTNNLPPRERKAGCKNFYWKGFTSC-OH; disulfide 17-28) | similarly biologically active although having somewhat lower potencies | –
2 | somatostatin-28 [SS-28] | – | increased potency
